Reference: patent US11964990B2, “1,3,4,7-tetrahydro-2H-pyrrolo[3′,2′:5,6]pyrido[2,3-b][1,4]oxazepine bcl-2 inhibitors” (AbbVie Inc., priority 2022, dated 2024)

Tests used:
[1] = system: Molt-4 cells; test: Cell viability counter screen assay (CellTiter-Glo) in Molt-4 cells; assay type: cell-based; conditions: 24 hours, 10% Human Serum, 50% decrease in cell viability
Text: (§1) The acute lymphoblastic leukemia (ALL) human cell line RS4;11 (ATCC, Manassas VA) was used as the primary human cell line to assess the cellular activity of compound of the present Examples in vitro and their efficacy in vivo. BH3 profiling, a mitochondrial assay that classifies blocks in the intrinsic apoptotic pathway, has shown that RS4;11 cells were highly dependent on Bcl-2 protein for survival and were sensitive to a Bcl-2 inhibitor (Blood. 2008; 111(4):2300-2309). […] The acute lymphoblastic leukemia cell line Molt-4, which is derived from immature T-lymphoid cells (T-ALL), was used as a counter screen assay.
(§2) Frozen RS4;11 or Molt-4 cells (ATCC, Manassas, VA, USA) were thawed overnight in RPMI 1640 media (Thermo Fisher Scientific, Waltham, MA, USA) supplemented with 1% penicillin/streptomycin (Thermo Fisher Scientific, Waltham, MA, USA), and 10% Human Serum (Sigma, St. Louis, MO, USA). 3000 Cells (0.1×10^6/mL) were seeded in each well of 384-well plate and were treated for 24 hours in a humidified chamber with 5% CO2. Cell viability was determined by CellTiter-Glo as described by the manufacturer's instructions (Promega Corporation, Madison, WI, USA). Responses were determined as a percentage of the control treated cells and the effective concentration (EC50) to induce a 50% decrease in cell viability were determined from sigmoidal dose-response curves using Dotmatics (Dotmatics Software Company, Bishops Stortford, Hertfordshire, England).

[2] = system: RS4;11 cells; test: Cell viability assay (CellTiter-Glo) in RS4;11 cell line; assay type: cell-based; conditions: 24 hours, 10% Human Serum, 50% decrease in cell viability
Text: as §1, §2

Row | EC50 [2] [nM] | SMILES | EC50 [1] [nM]
1 | 1.47 | COCCO[C@H]1CC[C@H](CNc2ccc(S(=O)(=O)NC(=O)c3ccc(N4CCN5CC6=C(c7ccc(Cl)cc7)CC(C)(C)C[C@H]6OCCCOC[C@@H]5C4)cc3N3CCCOc4nc5[nH]ccc5cc43)cc2[N+](=O)[O-])OC1 [Example 35, 4-((4aS,10aR)-14-(4-chlorophenyl)-12,12-dimethyl-1,2,4a,5,8,9,10a,11,13,15-decahydro-7H,12H-benzo[f]pyrazino[2,1-c][1,8]dioxa[4]azacycloundecin-3(4H)-yl)-2-(3,4-dihydro-2H-pyrrolo[3′,2′:5,6]pyrido[2,3-b][1,4]oxazepin-1(7H)-yl)-N-((4-((((2R,5S)-5-(2-methoxyethoxy)tetrahydro-2H-pyran-2-yl)methyl)amino)-3-nitrophenyl)sulfonyl)benzamide] | 1740
2 | 19 | CC1(C)CC(c2ccc(Cl)cc2)=C2CN3CCN(c4ccc(C(=O)NS(=O)(=O)c5cnc(OC[C@]6(F)CC[C@H](N7CCOCC7)CC6)c(Cl)c5)c(N5CCCOc6nc7[nH]ccc7cc65)c4)C[C@H]3COCCCO[C@@H]2C1 [Example 11, N-((5-chloro-6-(((1r,4r)-1-fluoro-4-morpholinocyclohexyl)methoxy)pyridin-3-yl)sulfonyl)-4-((4aS,10aR)-14-(4-chlorophenyl)-12,12-dimethyl-1,2,4a,5,8,9,10a, 11,13,15-decahydro-7H,12H-benzo[f]pyrazino[2,1-c][1,8]dioxa[4]azacycloundecin-3(4H)-yl)-2-(3,4-dihydro-2H-pyrrolo[3′,2′:5,6]pyrido[2,3-b][1,4]oxazepin-1(7H)-yl)benzamide] | 3710
3 | 5.29 | C[C@H]1CC[C@H](CNc2ccc(S(=O)(=O)NC(=O)c3ccc(N4CCN5CC6=C(c7ccc(Cl)cc7)CC(C)(C)C[C@H]6OCCCOC[C@@H]5C4)cc3N3CCCOc4nc5[nH]ccc5cc43)cc2[N+](=O)[O-])OC1 [Example 23, 4-((4aS,10aR)-14-(4-chlorophenyl)-12,12-dimethyl-1,2,4a,5,8,9,10a,11,13,15-decahydro-7H,12H-benzo[f]pyrazino[2,1-c][1,8]dioxa[4]azacycloundecin-3(4H)-yl)-2-(3,4-dihydro-2H-pyrrolo[3′,2′:5,6]pyrido[2,3-h][1,4]oxazepin-1(7H)-yl)-N-((4-((((2R,5S)-5-methyltetrahydro-2H-pyran-2-yl)methyl)amino)-3-nitrophenyl)sulfonyl)benzamide] | > 10000
4 | 1.47 | CC1(C)CC(c2ccc(Cl)cc2)=C2CN3CCN(c4ccc(C(=O)NS(=O)(=O)c5ccc(NC[C@H]6CC[C@@](C)(O)CC6)c([N+](=O)[O-])c5)c(N5CCCOc6nc7[nH]ccc7cc65)c4)C[C@H]3COCCCO[C@@H]2C1 [Example 36, 4-((4aS,10aR)-14-(4-chlorophenyl)-12,12-dimethyl-1,2,4a,5,8,9,10a,11,13,15-decahydro-7H,12H-benzo[f]pyrazino[2,1-c][1,8]dioxa[4]azacycloundecin-3(4H)-yl)-2-(3,4-dihydro-2H-pyrrolo[3′,2′:5,6]pyrido[2,3-b][1,4]oxazepin-1(7H)-yl)-N-((4-((((1s,4s)-4-hydroxy-4-methylcyclohexyl)methyl)amino)-3-nitrophenyl)sulfonyl)benzamide] | 117
5 | 3.93 | CO[C@H]1C[C@H](CNc2ccc(S(=O)(=O)NC(=O)c3ccc(N4CCN5CC6=C(c7ccc(Cl)cc7)CC(C)(C)C[C@H]6OCCCOC[C@@H]5C4)cc3N3CCCOc4nc5[nH]ccc5cc43)cc2[N+](=O)[O-])C1 [Example 41, 4-((4aS,10aR)-14-(4-chlorophenyl)-12,12-dimethyl-1,2,4a,5,8,9,10a,11,13,15-decahydro-7H,12H-benzo[f]pyrazino[2,1-c][1,8]dioxa[4]azacycloundecin-3(4H)-yl)-2-(3,4-dihydro-2H-pyrrolo[3′,2′:5,6]pyrido[2,3-h][1,4]oxazepin-1(7H)-yl)-N-((4-((((1r,3r)-3-methoxycyclobutyl)methyl)amino)-3-nitrophenyl)sulfonyl)benzamide] | > 10000
6 | 2.78 | COCCN1CCC(F)(COc2ncc(S(=O)(=O)NC(=O)c3ccc(N4CCN5CC6=C(c7ccc(Cl)cc7)CC(C)(C)C[C@H]6OCCCOC[C@@H]5C4)cc3N3CCCOc4nc5[nH]ccc5cc43)cc2Cl)CC1 [Example 22, N-((5-chloro-6-((4-fluoro-1-(2-methoxyethyl)piperidin-4-yl)methoxy)pyridin-3-yl)sulfonyl)-4-((4aS,10aR)-14-(4-chlorophenyl)-12,12-dimethyl-1,2,4a,5,8,9,10a,11,13,15-decahydro-7H,12H-benzo[f]pyrazino[2,1-c][1,8]dioxa[4]azacycloundecin-3(4H)-yl)-2-(3,4-dihydro-2H-pyrrolo[3′,2′:5,6]pyrido[2,3-b][1,4]oxazepin-1(7H)-yl)benzamide] | 755
7 | 57.6 | CO[C@H]1CC[C@H](CNc2ccc(S(=O)(=O)NC(=O)c3ccc(N4CCN5CC6=C(c7ccc(Cl)cc7)CC(C)(C)C[C@H]6OCCCOC[C@@H]5C4)cc3N3CCCOc4nc5[nH]ccc5cc43)cc2Cl)OC1 [Example 34, N-((3-chloro-4-((((2R,5S)-5-methoxytetrahydro-2H-pyran-2-yl)methyl)amino)phenyl)sulfonyl)-4-((4aS,10aR)-14-(4-chlorophenyl)-12,12-dimethyl-1,2,4a,5,8,9,10a,11,13,15-decahydro-7H,12H-benzo[f]pyrazino[2,1-c][1,8]dioxa[4]azacycloundecin-3(4H)-yl)-2-(3,4-dihydro-2H-pyrrolo[3′,2′:5,6]pyrido[2,3-b][1,4]oxazepin-1(7H)-yl)benzamide] | > 10000
8 | 7.11 | CO[C@H]1CC[C@H](CNc2ccc(S(=O)(=O)NC(=O)c3ccc(N4CCN5CC6=C(c7ccc(Cl)cc7)CC(C)(C)C[C@H]6OCCCOC[C@@H]5C4)cc3N3CCCOc4nc5[nH]ccc5cc43)cc2[N+](=O)[O-])CC1 [Example 5, 4-((4aS,10aR)-14-(4-chlorophenyl)-12,12-dimethyl-1,2,4a,5,8,9,10a,11,13,15-decahydro-7H,12H-benzo[f]pyrazino[2,1-c][1,8]dioxa[4]azacycloundecin-3(4H)-yl)-2-(3,4-dihydro-2H-pyrrolo[3′,2′:5,6]pyrido[2,3-b][1,4]oxazepin-1(7H)-yl)-N-((4-((((1r,4r)-4-methoxycyclohexyl)methyl)amino)-3-nitrophenyl)sulfonyl)benzamide] | 4460
9 | 1.97 | COC1CO[C@H](CNc2ccc(S(=O)(=O)NC(=O)c3ccc(N4CCN5CC6=C(c7ccc(Cl)cc7)CC(C)(C)C[C@H]6OCCCOC[C@@H]5C4)cc3N3CCCOc4nc5[nH]ccc5cc43)cc2[N+](=O)[O-])C1 (stereo partly drawn) [Example 29, 4-((4aS,10aR)-14-(4-chlorophenyl)-12,12-dimethyl-1,2,4a,5,8,9,10a,11,13,15-decahydro-7H,12H-benzo[f]pyrazino[2,1-c][1,8]dioxa[4]azacycloundecin-3(4H)-yl)-2-(3,4-dihydro-2H-pyrrolo[3′,2′:5,6]pyrido[2,3-b][1,4]oxazepin-1(7H)-yl)-N-((4-((((2S)-4-methoxytetrahydrofuran-2-yl)methyl)amino)-3-nitrophenyl)sulfonyl)benzamide] | 1890

Row | SMILES | EC50 [2] [nM] | EC50 [1] [nM]
10 | CO[C@H]1CC[C@H](COc2ccc(S(=O)(=O)NC(=O)c3ccc(N4CCN5CC6=C(c7ccc(Cl)cc7)CC(C)(C)C[C@H]6OCCCOC[C@@H]5C4)cc3N3CCCOc4nc5[nH]ccc5cc43)cc2[N+](=O)[O-])OC1 [Example 33, 4-((4aS,10aR)-14-(4-chlorophenyl)-12,12-dimethyl-1,2,4a,5,8,9,10a,11,13,15-decahydro-7H,12H-benzo[f]pyrazino[2,1-c][1,8]dioxa[4]azacycloundecin-3(4H)-yl)-2-(3,4-dihydro-2H-pyrrolo[3′,2′:5,6]pyrido[2,3-b][1,4]oxazepin-1(7H)-yl)-N-((4-(((2R,5S)-5-methoxytetrahydro-2H-pyran-2-yl)methoxy)-3-nitrophenyl)sulfonyl)benzamide] | 3.49 | 6080
11 | CC1(C)CC(c2ccc(Cl)cc2)=C2CN3CCN(c4ccc(C(=O)NS(=O)(=O)c5ccc(NC[C@H]6COCCO6)c([N+](=O)[O-])c5)c(N5CCCOc6nc7[nH]ccc7cc65)c4)C[C@H]3COCCCO[C@@H]2C1 [Example 3, N-((4-((((S)-1,4-dioxan-2-yl)methyl)amino)-3-nitrophenyl)sulfonyl)-4-((4aS,10aR)-14-(4-chlorophenyl)-12,12-dimethyl-1,2,4a,5,8,9,10a,11,13,15-decahydro-7H,12H-benzo[f]pyrazino[2,1-c][1,8]dioxa[4]azacycloundecin-3(4H)-yl)-2-(3,4-dihydro-2H-pyrrolo[3′,2′:5,6]pyrido[2,3-b][1,4]oxazepin-1(7H)-yl)benzamide] | 1.36 | 1410
12 | CC1(C)CC(c2ccc(Cl)cc2)=C2CN3CCN(c4ccc(C(=O)NS(=O)(=O)c5ccc(NCC6CCOCC6)c([N+](=O)[O-])c5)c(N5CCCOc6nc7[nH]ccc7cc65)c4)C[C@H]3COCCCO[C@@H]2C1 [Example 1, 4-((4aS,10aR)-14-(4-chlorophenyl)-12,12-dimethyl-1,2,4a,5,8,9,10a,11,13,15-decahydro-7H,12H-benzo[f]pyrazino[2,1-c][1,8]dioxa[4]azacycloundecin-3(4H)-yl)-2-(3,4-dihydro-2H-pyrrolo[3′,2′:5,6]pyrido[2,3-b][1,4]oxazepin-1(7H)-yl)-N-((3-nitro-4-(((tetrahydro-2H-pyran-4-yl)methyl)amino)phenyl)sulfonyl)benzamide] | 4.01 | > 10000
